Test results reported in US7538122B2, “Heterocyclic antiviral compounds” (Roche Palo Alto LLC, priority 2004, dated 2009).
Like-named read-outs stand apart in the source and are kept apart here.

How the values were obtained:
Human CCR5 receptor = molecular target: T1, Human CCR5 receptor (Homo sapiens, UniProt P51681); test: Human CCR5 receptor-ligand binding assay (125I chemokine displacement on CHO-Gα16-hCCR5 cells); conditions: RT 2 h
T1 construct: expressed in transfected cells
Source text: Human CCR5 Receptor-Ligand Binding Assay Protocol
Human CCR5 receptor (Genebank ID: 29169292) was cloned into mammalian expression vector, pTarget (Promega). The construct was transfected into CHO-Gα16 cells by using Fugene Reagent (Roche). Clones were selected under antibiotic pressure (G418 and Hygromycin) and sorted 4 times with a fluorescence activates cell sorter and a monoclonal antibody specific for CCR5 receptor (BD Biosciences Pharmigen, Mab 2D7, Cat. No. 555993). The clone with highest expression (100,000 copies per cell) was chosen for the binding assays.
Adherent cells in […] tissue culture flask (˜90% confluent) were harvested using 1 mM EDTA in PBS (phosphate-buffered saline) without Ca^2+ and Mg^2+. Cells were washed twice with PBS containing no Ca^2+ and Mg^2+. CHO-Gα16-hCCR5 cells were then resuspended (1×10^6/ml) in ice cold binding buffer (50 mM HEPES, 1 mM CaCl2, 5 mM MgCl2, 0.5% BSA, 0.05% NaN3, pH 7.24), pH 7.4), supplemented with freshly made 0.5% BSA and 0.05% NaN3.
Eighty μl CHO-Gα16-hCCR5 (1×10^6/ml) cells were added to 96 well plates. All dilutions were made in binding buffer (50 mM HEPES, 1 mM CaCl2, 5 mM MgCl2, 0.5% BSA, 0.05% NaN3, pH 7.24).
The plates were incubated on a cell shaker at RT for 2 h with a final concentration of 0.1 nM ^125I RANTES or ^125I MIP-1α or ^125I MIP-1β. The compound dilutions were made in PBS, 1% BSA. Total reaction volume was 100 μl per well. The test compounds were added to the cells prior to the addition of radioligand.
After incubation, the cells were harvested onto GF/C filter plates using Packard cell harvester. Filters were pretreated with 0.3% PEI/0.2% BSA for 30 min. The filter plate was washed rapidly 5 times with 25 mM HEPES, 500 mM NaCl, 1 mM CaCl2 and 5 mM MgCl2 adjusted to pH 7.1. Plates were dried in oven (70° C.) for 20 min, added with 40 μl scintillation fluid and sealed with Packard TopSeal-A. Packard Top Count was used to measure of the radioactivity for 1 min per well.
Total binding was determined with control wells added with radioisotope and buffer and the non-specific binding was determined using an excess cold RANTES to some of the control wells. Specific binding was determined by subtracting the non-specific form total binding. Results are expressed as the percentage of specific ^125I RANTES binding. IC50 values were determined using varying concentrations of the test ligand in triplicates and the data was analyzed using GraphPad Prism (GraphPad, San Diego, Calif.).

[1] = 0.1 nM 125I MIP-1β, read-out: Binding IC50 Mip-1b
[2] = 0.1 nM 125I RANTES, read-out: Binding IC50 RANTES
[3] = 0.1 nM 125I MIP-1α, read-out: Binding IC50 Mip-1a

T1 sequence (P51681 whole entry): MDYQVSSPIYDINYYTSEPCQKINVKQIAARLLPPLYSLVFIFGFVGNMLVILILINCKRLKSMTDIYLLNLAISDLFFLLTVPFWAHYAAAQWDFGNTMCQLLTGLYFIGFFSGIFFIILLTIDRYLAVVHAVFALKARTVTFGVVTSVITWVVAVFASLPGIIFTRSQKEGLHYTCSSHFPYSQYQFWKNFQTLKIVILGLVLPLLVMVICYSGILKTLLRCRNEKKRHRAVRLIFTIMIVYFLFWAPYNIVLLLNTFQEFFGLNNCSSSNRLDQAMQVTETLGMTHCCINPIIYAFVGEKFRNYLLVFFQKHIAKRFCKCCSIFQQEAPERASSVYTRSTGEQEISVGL

Row | Molecule | IC50 (Human CCR5 receptor; [1]) [nM] | IC50 (Human CCR5 receptor; [2]) [nM] | IC50 (Human CCR5 receptor; [3]) [nM] | melting point [°C]
1 | 4-Butyl-8-[1-(2,6-dimethyl-benzoyl)-piperidin-4-yl]-3-(2-methyl-butyl)-1-oxa-3,8-diaza-spiro[4.5]decan-2-one; compound with trifluoro-acetic acid [Compound I-90] | 1.8 | 5.1 |  | 
2 | CCCCC1N(CC2CCCCC2)C(=O)OC12CCN(C1CCN(C(=O)c3c(C)cccc3C)CC1)CC2 (stereo not shown) [Compound I-1, 4-Butyl-3-cyclohexylmethyl-8-[1-(2,6-dimethyl-benzoyl)-piperidin-4-yl]-1-oxa-3,8-diaza-spiro[4.5]decan-2-one] | 13 | 14 | 18 | 
3 | CCCCN1C(=O)C([C@@H](O)C2CCCCC2)NC(=O)C12CCN(C1CCN(C(=O)c3c(C)cccc3C)CC1)CC2 (stereo partly drawn) [Compound I-76, 1-Butyl-3-((S)-cyclohexyl-hydroxy-methyl)-9-[1-(2,6-dimethyl-benzoyl)-piperidin-4-yl]-1,4,9-triaza-spiro[5.5]undecane-2,5-dione] |  |  |  | 246.9 to 248
4 | CCCC[C@@H]1N(CC2CCCCC2)C(=O)OC12CCN(C1CCN(C(=O)c3c(C)cccc3C)CC1)CC2 [Compound I-159, (S)-4-Butyl-3-cyclohexylmethyl-8-[1-(2,6-dimethyl-benzoyl)-piperidin-4-yl]-1-oxa-3,8-diaza-spiro[4.5]decan-2-one] | 10.5 | 5.1 | 4.5 | 
5 | CCCCC1N(CC2CCCCC2)C(=O)OC12CCN(C1(C)CCN(C(=O)c3c(C)ncnc3C)CC1)CC2 (stereo not shown) [Compound I-212, 4-Butyl-3-cyclohexylmethyl-8-[1-(4,6-dimethyl-pyrimidine-5-carbonyl)-4-methyl-piperidin-4-yl]-1-oxa-3,8-diaza-spiro[4.5]decan-2-one; compound with trifluoro-acetic acid] |  | 7.3 |  | 
6 | CCCCC1N(CC2CCCCC2)C(=O)OC12CCN(C1(C)CCN(C(=O)c3c(C)nn(Cc4ccccc4)c3C)CC1)CC2 (stereo not shown) [Compound I-214, 8-[1-(1-Benzyl-3,5-dimethyl-1H-pyrazole-4-carbonyl)-4-methyl-piperidin-4-yl]-4-butyl-3-cyclohexylmethyl-1-oxa-3,8-diaza-spiro[4.5]decan-2-one; compound with trifluoro-acetic acid] |  | 8.2 |  | 
7 | CCCCC1CN(CC2CCOCC2)C(=O)OC12CCN(C1(C)CCN(C(=O)c3c(C)ncnc3C)CC1)CC2 (stereo not shown) [Compound I-415, 5-Butyl-9-[1-(4,6-dimethyl-pyrimidine-5-carbonyl)-4-methyl-piperidin-4-yl]-3-(tetrahydro-pyran-4-ylmethyl)-1-oxa-3,9-diaza-spiro[5.5]undecan-2-one; compound with trifluoro-acetic acid] | < 1.5 | 7.7 |  | 
